{"source": "the supplement of paper PMC9512659", "key": {"[1]": {"tested_on": "Mycobacterium tuberculosis Erdman (pMV306hsp+LuxG13)", "test": "GRinf, normalised growth-rate inhibition at infinite dose (GR value (unitless, negative = killing)); higher = less potent", "procedure": "(§1)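 DiaMOND pairwise dose responses of an equipotent two-drug mixture (1.5-fold, 10-dose series) against autoluminescent M. tuberculosis Erdman in 384-well plates. Growth inhibition was read by OD600 (luminescence for dormancy) in seven media at a constant and a terminal time point; metrics are means of at least biological duplicates. Einf and AUC25 higher = more potent; GRinf lower = more potent; log2FIC negative = synergy.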"}, "[2]": {"tested_on": "Mycobacterium tuberculosis Erdman (pMV306hsp+LuxG13)", "test": "AUC25, normalised area under the dose-response curve up to IC25 (normalised AUC (unitless)); higher = more potent", "procedure": "as §1"}, "[3]": {"tested_on": "Mycobacterium tuberculosis Erdman (pMV306hsp+LuxG13)", "test": "log2 fractional inhibitory concentration at 50% inhibition (log2 FIC); higher = more antagonistic", "procedure": "as §1"}, "[4]": {"tested_on": "Mycobacterium tuberculosis Erdman (pMV306hsp+LuxG13)", "test": "log2 fractional inhibitory concentration at 90% inhibition (log2 FIC); higher = more antagonistic", "procedure": "as §1"}, "[5]": {"tested_on": "Mycobacterium tuberculosis Erdman (pMV306hsp+LuxG13)", "test": "Einf, effect of the drug pair at infinite dose (maximum growth inhibition) (fraction inhibition (0-1)); higher = more potent; extreme values may be limits of the assay", "procedure": "as §1"}, "[6]": {"conditions": "growth medium: acidic pH 5.7, glycerol, time point: constant time point"}, "[7]": {"conditions": "growth medium: acidic pH 5.7, glycerol, time point: terminal time point"}, "[8]": {"conditions": "growth medium: butyrate 5 mM, time point: constant time point"}, "[9]": {"conditions": "growth medium: butyrate 5 mM, time point: terminal time point"}, "[10]": {"conditions": "growth medium: cholesterol 0.05 mM, time point: constant time point"}, "[11]": {"conditions": "growth medium: cholesterol 0.05 mM, time point: terminal time point"}, "[12]": {"conditions": "growth medium: cholesterol 0.2 mM (cholesterol-high), time point: constant time point"}, "[13]": {"conditions": "growth medium: cholesterol 0.2 mM (cholesterol-high), time point: terminal time point"}, "[14]": {"conditions": "growth medium: hypoxic dormancy (butyrate + nitrate), then recovery, time point: constant time point"}, "[15]": {"conditions": "growth medium: hypoxic dormancy (butyrate + nitrate), then recovery, time point: terminal time point"}, "[16]": {"conditions": "growth medium: standard 7H9 OADC glycerol, time point: constant = terminal time point (4.2 d)"}, "[17]": {"conditions": "growth medium: valerate 0.1%, time point: constant time point"}, "[18]": {"conditions": "growth medium: valerate 0.1%, time point: terminal time point"}}}
{"smiles": "CC(C)/N=c1\\cc2n(-c3ccc(Cl)cc3)c3ccccc3nc-2cc1Nc1ccc(Cl)cc1", "note": "[clofazimine] + CC(=O)NC[C@H]1CN(c2ccc(N3CCSCC3)c(F)c2)C(=O)O1 [sutezolid]", "values": [{"measurement": "GRinf", "setting": "[1]; [6]", "result": 0.0525}, {"measurement": "GRinf", "setting": "[1]; [7]", "result": -0.188}, {"measurement": "GRinf", "setting": "[1]; [8]", "result": 0.00728}, {"measurement": "GRinf", "setting": "[1]; [9]", "result": -0.00637}, {"measurement": "GRinf", "setting": "[1]; [10]", "result": -1}, {"measurement": "GRinf", "setting": "[1]; [11]", "result": -0.651}, {"measurement": "GRinf", "setting": "[1]; [12]", "result": -0.741}, {"measurement": "GRinf", "setting": "[1]; [13]", "result": -0.833}, {"measurement": "GRinf", "setting": "[1]; [14]", "result": 0.181}, {"measurement": "GRinf", "setting": "[1]; [15]", "result": 0.351}, {"measurement": "GRinf", "setting": "[1]; [16]", "result": -0.00824}, {"measurement": "GRinf", "setting": "[1]; [17]", "result": -0.364}, {"measurement": "GRinf", "setting": "[1]; [18]", "result": 0.184}, {"measurement": "AUC25", "setting": "[2]; [6]", "result": 0.101}, {"measurement": "AUC25", "setting": "[2]; [7]", "result": 0.108}, {"measurement": "AUC25", "setting": "[2]; [8]", "result": 0.0828}, {"measurement": "AUC25", "setting": "[2]; [9]", "result": 0.0725}, {"measurement": "AUC25", "setting": "[2]; [10]", "result": 0.112}, {"measurement": "AUC25", "setting": "[2]; [11]", "result": 0.125}, {"measurement": "AUC25", "setting": "[2]; [12]", "result": 0.1}, {"measurement": "AUC25", "setting": "[2]; [13]", "result": 0.116}, {"measurement": "AUC25", "setting": "[2]; [14]", "result": 0.0485}, {"measurement": "AUC25", "setting": "[2]; [15]", "result": 0.0291}, {"measurement": "AUC25", "setting": "[2]; [16]", "result": 0.0934}, {"measurement": "AUC25", "setting": "[2]; [17]", "result": 0.118}, {"measurement": "AUC25", "setting": "[2]; [18]", "result": 0.0261}, {"measurement": "log2 fractional inhibitory concentration", "setting": "[3]; [6]", "result": 0.684}, {"measurement": "log2 fractional inhibitory concentration", "setting": "[3]; [7]", "result": -0.139}, {"measurement": "log2 fractional inhibitory concentration", "setting": "[3]; [8]", "result": -1.05}, {"measurement": "log2 fractional inhibitory concentration", "setting": "[3]; [9]", "result": -1.03}, {"measurement": "log2 fractional inhibitory concentration", "setting": "[3]; [10]", "result": -0.848}, {"measurement": "log2 fractional inhibitory concentration", "setting": "[3]; [11]", "result": -1.5}, {"measurement": "log2 fractional inhibitory concentration", "setting": "[3]; [12]", "result": -0.164}, {"measurement": "log2 fractional inhibitory concentration", "setting": "[3]; [13]", "result": -0.588}, {"measurement": "log2 fractional inhibitory concentration", "setting": "[3]; [14]", "result": -0.185}, {"measurement": "log2 fractional inhibitory concentration", "setting": "[3]; [15]", "result": 0.178}, {"measurement": "log2 fractional inhibitory concentration", "setting": "[3]; [16]", "result": -0.402}, {"measurement": "log2 fractional inhibitory concentration", "setting": "[3]; [17]", "result": 0.279}, {"measurement": "log2 fractional inhibitory concentration", "setting": "[3]; [18]", "result": 0.564}, {"measurement": "log2 fractional inhibitory concentration", "setting": "[4]; [7]", "result": -0.457}, {"measurement": "log2 fractional inhibitory concentration", "setting": "[4]; [9]", "result": -1.04}, {"measurement": "log2 fractional inhibitory concentration", "setting": "[4]; [10]", "result": -0.263}, {"measurement": "log2 fractional inhibitory concentration", "setting": "[4]; [11]", "result": -0.782}, {"measurement": "log2 fractional inhibitory concentration", "setting": "[4]; [12]", "result": -0.0175}, {"measurement": "log2 fractional inhibitory concentration", "setting": "[4]; [13]", "result": -0.392}, {"measurement": "log2 fractional inhibitory concentration", "setting": "[4]; [14]", "result": -0.341}, {"measurement": "log2 fractional inhibitory concentration", "setting": "[4]; [15]", "result": -0.881}, {"measurement": "log2 fractional inhibitory concentration", "setting": "[4]; [16]", "result": -0.528}, {"measurement": "log2 fractional inhibitory concentration", "setting": "[4]; [18]", "result": -1.6}, {"measurement": "Einf", "setting": "[5]; [6]", "result": 0.875}, {"measurement": "Einf", "setting": "[5]; [7]", "result": 0.981}, {"measurement": "Einf", "setting": "[5]; [8]", "result": 0.911}, {"measurement": "Einf", "setting": "[5]; [9]", "result": 0.961}, {"measurement": "Einf", "setting": "[5]; [10]", "result": 1}, {"measurement": "Einf", "setting": "[5]; [11]", "result": 1}, {"measurement": "Einf", "setting": "[5]; [12]", "result": 0.983}, {"measurement": "Einf", "setting": "[5]; [13]", "result": 1}, {"measurement": "Einf", "setting": "[5]; [14]", "result": 0.988}, {"measurement": "Einf", "setting": "[5]; [15]", "result": 0.974}, {"measurement": "Einf", "setting": "[5]; [16]", "result": 0.967}, {"measurement": "Einf", "setting": "[5]; [17]", "result": 0.949}, {"measurement": "Einf", "setting": "[5]; [18]", "result": 0.967}]}
